Assay results taken from ChEMBL document CHEMBL1268814, “Synthesis and biological evaluation of bivalent ligands for the cannabinoid 1 receptor” (J Med Chem, 2010).
pEC50, pKi: −log10 of the molar value. Active and inactive are the calls of the source. The calls are words filed in the database; no cut-off is given here.

Target: T1, Cannabinoid receptor 1 (Homo sapiens, UniProt P21554)
Assay: biochemical
Assay type: cell-based, HEK293
Details: not given

T1 sequence (P21554 whole entry): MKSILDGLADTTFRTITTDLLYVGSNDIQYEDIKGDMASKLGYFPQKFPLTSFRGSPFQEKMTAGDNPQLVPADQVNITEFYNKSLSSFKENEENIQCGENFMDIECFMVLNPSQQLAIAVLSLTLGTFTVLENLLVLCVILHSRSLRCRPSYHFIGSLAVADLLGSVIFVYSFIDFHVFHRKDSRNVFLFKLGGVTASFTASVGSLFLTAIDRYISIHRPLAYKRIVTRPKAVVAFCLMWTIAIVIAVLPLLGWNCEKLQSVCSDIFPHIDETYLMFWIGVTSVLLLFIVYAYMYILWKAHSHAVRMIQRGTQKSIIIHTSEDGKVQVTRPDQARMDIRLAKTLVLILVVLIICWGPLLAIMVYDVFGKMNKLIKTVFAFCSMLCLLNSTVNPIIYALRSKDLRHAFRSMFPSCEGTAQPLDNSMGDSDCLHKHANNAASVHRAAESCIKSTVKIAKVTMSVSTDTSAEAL

Compound	pKi
Cc1c(C(=O)NCCCCCCCCCCCN(C)CCCCCCCCCCCN)nn(-c2ccc(Cl)cc2Cl)c1-c1ccc(Cl)cc1	8.26
Cc1c(C(=O)NCCCNCCCN)nn(-c2ccc(Cl)cc2Cl)c1-c1ccc(Cl)cc1	< 5.60
Cc1c(C(=O)NCCCCCCCCCCCNCCCCCCCCCCCN)nn(-c2ccc(Cl)cc2Cl)c1-c1ccc(Cl)cc1	8.64
Cc1c(C(=O)NCCCCCNCCCCCN)nn(-c2ccc(Cl)cc2Cl)c1-c1ccc(Cl)cc1	6.64
Cc1c(C(=O)NCCCCCCCCCN(C)CCCCCCCCCN)nn(-c2ccc(Cl)cc2Cl)c1-c1ccc(Cl)cc1	8.21
Cc1c(C(=O)NCCNCCN)nn(-c2ccc(Cl)cc2Cl)c1-c1ccc(Cl)cc1	6.30
Cc1c(C(=O)NCCCCCCCNCCCCCCCN)nn(-c2ccc(Cl)cc2Cl)c1-c1ccc(Cl)cc1	7.71
Cc1c(C(=O)NCCCCCN(C)CCCCCN)nn(-c2ccc(Cl)cc2Cl)c1-c1ccc(Cl)cc1	7.05
Cc1c(C(=O)NCCCCCCCCCNCCCCCCCCCN)nn(-c2ccc(Cl)cc2Cl)c1-c1ccc(Cl)cc1	8.26
Cc1c(C(=O)NCCCCCCCN(C)CCCCCCCN)nn(-c2ccc(Cl)cc2Cl)c1-c1ccc(Cl)cc1	7.81

Target: T1, Cannabinoid receptor 1
Assay: not given
Details: CHO

Compound	Ke
Cc1c(C(=O)NCCCCCCCCCCCN(C)CCCCCCCCCCCN)nn(-c2ccc(Cl)cc2Cl)c1-c1ccc(Cl)cc1	206 nM
Cc1c(C(=O)NCCCNCCCN)nn(-c2ccc(Cl)cc2Cl)c1-c1ccc(Cl)cc1	inactive
Cc1c(C(=O)NCCCCCCCCCCCNCCCCCCCCCCCN)nn(-c2ccc(Cl)cc2Cl)c1-c1ccc(Cl)cc1	146 nM
Cc1c(C(=O)NCCCCCNCCCCCN)nn(-c2ccc(Cl)cc2Cl)c1-c1ccc(Cl)cc1	5400 nM
Cc1c(C(=O)NCCCCCCCCCN(C)CCCCCCCCCN)nn(-c2ccc(Cl)cc2Cl)c1-c1ccc(Cl)cc1	141 nM
Cc1c(C(=O)NCCNCCN)nn(-c2ccc(Cl)cc2Cl)c1-c1ccc(Cl)cc1	inactive
Cc1c(C(=O)NCCCCCCCNCCCCCCCN)nn(-c2ccc(Cl)cc2Cl)c1-c1ccc(Cl)cc1	503 nM
Cc1c(C(=O)NCCCCCN(C)CCCCCN)nn(-c2ccc(Cl)cc2Cl)c1-c1ccc(Cl)cc1	2870 nM
Cc1c(C(=O)NCCCCCCCCCNCCCCCCCCCN)nn(-c2ccc(Cl)cc2Cl)c1-c1ccc(Cl)cc1	31.6 nM
Cc1c(C(=O)NCCCCCCCN(C)CCCCCCCN)nn(-c2ccc(Cl)cc2Cl)c1-c1ccc(Cl)cc1	220 nM

Target: T1, Cannabinoid receptor 1
Assay: Displacement of [3H]CP55940 from human CB1 receptor expressed in HEK293 cells
Assay type: cell-based
Details: not given

Compound	pKi
Cc1c(C(=O)NCCCCCCCCCCCN(C)CCCCCCCCCCCN)nn(-c2ccc(Cl)cc2Cl)c1-c1ccc(Cl)cc1	7.83
Cc1c(C(=O)NCCCNCCCN)nn(-c2ccc(Cl)cc2Cl)c1-c1ccc(Cl)cc1	< 5.60
Cc1c(C(=O)NCCCCCCCCCCCNCCCCCCCCCCCN)nn(-c2ccc(Cl)cc2Cl)c1-c1ccc(Cl)cc1	8.34
Cc1c(C(=O)NCCCCCNCCCCCN)nn(-c2ccc(Cl)cc2Cl)c1-c1ccc(Cl)cc1	6.46
Cc1c(C(=O)NCCCCCCCCCN(C)CCCCCCCCCN)nn(-c2ccc(Cl)cc2Cl)c1-c1ccc(Cl)cc1	8.00
Cc1c(C(=O)NCCNCCN)nn(-c2ccc(Cl)cc2Cl)c1-c1ccc(Cl)cc1	5.91
Cc1c(C(=O)NCCCCCCCNCCCCCCCN)nn(-c2ccc(Cl)cc2Cl)c1-c1ccc(Cl)cc1	7.33
Cc1c(C(=O)NCCCCCN(C)CCCCCN)nn(-c2ccc(Cl)cc2Cl)c1-c1ccc(Cl)cc1	6.79
Cc1c(C(=O)NCCCCCCCCCNCCCCCCCCCN)nn(-c2ccc(Cl)cc2Cl)c1-c1ccc(Cl)cc1	7.85
Cc1c(C(=O)NCCCCCCCN(C)CCCCCCCN)nn(-c2ccc(Cl)cc2Cl)c1-c1ccc(Cl)cc1	7.43

System: Mus musculus
Assay: Inhibition of compound 21-induced antinociception in mouse at 10 mg/kg, ip administered 30 mins before compound-21 dosing by tail flick latency test
Details: not given

Compound	inhibition
Cc1c(C(=O)NCCCCCCCNCCCCCCCN)nn(-c2ccc(Cl)cc2Cl)c1-c1ccc(Cl)cc1	inactive
Cc1c(C(=O)NCCCCCCCN(C)CCCCCCCN)nn(-c2ccc(Cl)cc2Cl)c1-c1ccc(Cl)cc1	Active

Target: Cannabinoid receptor 2 (Homo sapiens, UniProt P34972)
Assay: Displacement of [3H]CP55940 from human CB2 receptor expressed in CHOK1 cells
Assay type: cell-based, CHO-K1
Details: not given

Sequence of Cannabinoid receptor 2 (P34972 whole entry): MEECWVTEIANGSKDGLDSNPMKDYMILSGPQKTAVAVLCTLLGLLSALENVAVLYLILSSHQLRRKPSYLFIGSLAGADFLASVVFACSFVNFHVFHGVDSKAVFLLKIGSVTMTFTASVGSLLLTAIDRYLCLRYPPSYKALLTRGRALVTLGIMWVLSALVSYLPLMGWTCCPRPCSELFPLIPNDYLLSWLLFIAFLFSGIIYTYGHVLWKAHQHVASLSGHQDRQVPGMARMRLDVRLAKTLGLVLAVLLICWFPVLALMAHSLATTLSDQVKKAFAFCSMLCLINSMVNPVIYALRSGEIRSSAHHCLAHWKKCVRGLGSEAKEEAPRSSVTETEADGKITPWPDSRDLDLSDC

Compound	pKi
Cc1c(C(=O)NCCCCCCCCCCCN(C)CCCCCCCCCCCN)nn(-c2ccc(Cl)cc2Cl)c1-c1ccc(Cl)cc1	6.37
Cc1c(C(=O)NCCCNCCCN)nn(-c2ccc(Cl)cc2Cl)c1-c1ccc(Cl)cc1	< 5.60
Cc1c(C(=O)NCCCCCCCCCCCNCCCCCCCCCCCN)nn(-c2ccc(Cl)cc2Cl)c1-c1ccc(Cl)cc1	6.52
Cc1c(C(=O)NCCCCCNCCCCCN)nn(-c2ccc(Cl)cc2Cl)c1-c1ccc(Cl)cc1	< 5.60
Cc1c(C(=O)NCCCCCCCCCN(C)CCCCCCCCCN)nn(-c2ccc(Cl)cc2Cl)c1-c1ccc(Cl)cc1	6.58
Cc1c(C(=O)NCCNCCN)nn(-c2ccc(Cl)cc2Cl)c1-c1ccc(Cl)cc1	< 5.60
Cc1c(C(=O)NCCCCCCCNCCCCCCCN)nn(-c2ccc(Cl)cc2Cl)c1-c1ccc(Cl)cc1	6.21
Cc1c(C(=O)NCCCCCCCCCNCCCCCCCCCN)nn(-c2ccc(Cl)cc2Cl)c1-c1ccc(Cl)cc1	6.38
Cc1c(C(=O)NCCCCCCCN(C)CCCCCCCN)nn(-c2ccc(Cl)cc2Cl)c1-c1ccc(Cl)cc1	5.71

Target: T1, Cannabinoid receptor 1
Assay: Antagonist activity at human brain CB1 receptor by calcium mobilization assay
Assay type: functional
Details: read-out: pA2 (converted)

Compound	Kb [nM]
Cc1c(C(=O)NCCCCCCCCCCCN(C)CCCCCCCCCCCN)nn(-c2ccc(Cl)cc2Cl)c1-c1ccc(Cl)cc1	23.4
Cc1c(C(=O)NCCCCCCCCCCCNCCCCCCCCCCCN)nn(-c2ccc(Cl)cc2Cl)c1-c1ccc(Cl)cc1	3.16
Cc1c(C(=O)NCCCCCNCCCCCN)nn(-c2ccc(Cl)cc2Cl)c1-c1ccc(Cl)cc1	759
Cc1c(C(=O)NCCCCCCCCCN(C)CCCCCCCCCN)nn(-c2ccc(Cl)cc2Cl)c1-c1ccc(Cl)cc1	4.57
Cc1c(C(=O)NCCCCCCCNCCCCCCCN)nn(-c2ccc(Cl)cc2Cl)c1-c1ccc(Cl)cc1	20.4
Cc1c(C(=O)NCCCCCN(C)CCCCCN)nn(-c2ccc(Cl)cc2Cl)c1-c1ccc(Cl)cc1	309
Cc1c(C(=O)NCCCCCCCCCNCCCCCCCCCN)nn(-c2ccc(Cl)cc2Cl)c1-c1ccc(Cl)cc1	5.62
Cc1c(C(=O)NCCCCCCCN(C)CCCCCCCN)nn(-c2ccc(Cl)cc2Cl)c1-c1ccc(Cl)cc1	21.9

Target: Cannabinoid receptor 1 (Rattus norvegicus, UniProt P20272)
Assay: Antagonist activity at rat brain CB1 receptor assessed as inhibition of [35S]GTPgammaS binding
Assay type: functional
Details: not given

Sequence of Cannabinoid receptor 1 (Rattus norvegicus, UniProt P20272) (P20272 whole entry): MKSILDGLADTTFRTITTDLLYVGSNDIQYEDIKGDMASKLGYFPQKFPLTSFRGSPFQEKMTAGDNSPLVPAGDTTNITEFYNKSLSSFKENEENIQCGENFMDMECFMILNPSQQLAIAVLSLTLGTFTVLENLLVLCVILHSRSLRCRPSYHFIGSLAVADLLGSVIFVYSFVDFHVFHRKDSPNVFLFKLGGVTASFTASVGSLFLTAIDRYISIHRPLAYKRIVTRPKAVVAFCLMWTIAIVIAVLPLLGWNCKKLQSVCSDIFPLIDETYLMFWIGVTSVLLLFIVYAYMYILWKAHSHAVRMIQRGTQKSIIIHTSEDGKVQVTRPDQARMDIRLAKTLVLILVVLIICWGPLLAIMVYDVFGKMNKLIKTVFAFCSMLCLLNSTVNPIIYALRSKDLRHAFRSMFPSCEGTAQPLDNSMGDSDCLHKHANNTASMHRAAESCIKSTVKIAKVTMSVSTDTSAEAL

Compound	pEC50
Cc1c(C(=O)NCCCCCCCCCCCN(C)CCCCCCCCCCCN)nn(-c2ccc(Cl)cc2Cl)c1-c1ccc(Cl)cc1	5.06
Cc1c(C(=O)NCCCNCCCN)nn(-c2ccc(Cl)cc2Cl)c1-c1ccc(Cl)cc1	< 5.00
Cc1c(C(=O)NCCCCCCCCCCCNCCCCCCCCCCCN)nn(-c2ccc(Cl)cc2Cl)c1-c1ccc(Cl)cc1	5.44
Cc1c(C(=O)NCCCCCNCCCCCN)nn(-c2ccc(Cl)cc2Cl)c1-c1ccc(Cl)cc1	5.65
Cc1c(C(=O)NCCCCCCCCCN(C)CCCCCCCCCN)nn(-c2ccc(Cl)cc2Cl)c1-c1ccc(Cl)cc1	5.47
Cc1c(C(=O)NCCNCCN)nn(-c2ccc(Cl)cc2Cl)c1-c1ccc(Cl)cc1	5.14
Cc1c(C(=O)NCCCCCCCNCCCCCCCN)nn(-c2ccc(Cl)cc2Cl)c1-c1ccc(Cl)cc1	5.48
Cc1c(C(=O)NCCCCCN(C)CCCCCN)nn(-c2ccc(Cl)cc2Cl)c1-c1ccc(Cl)cc1	5.52
Cc1c(C(=O)NCCCCCCCCCNCCCCCCCCCN)nn(-c2ccc(Cl)cc2Cl)c1-c1ccc(Cl)cc1	5.62
Cc1c(C(=O)NCCCCCCCN(C)CCCCCCCN)nn(-c2ccc(Cl)cc2Cl)c1-c1ccc(Cl)cc1	5.36

Target: Cannabinoid receptor 1 (Rattus norvegicus) (UniProt P20272)
Assay: Antagonist activity at rat brain CB1 receptor assessed as inhibition of [35S]GTPgammaS binding at 10000 nM
Assay type: functional
Details: not given

Sequence of Cannabinoid receptor 1 (Rattus norvegicus) (P20272 whole entry): as the sequence (P20272 whole entry) above

Compound	Emax [%]
Cc1c(C(=O)NCCCCCCCCCCCN(C)CCCCCCCCCCCN)nn(-c2ccc(Cl)cc2Cl)c1-c1ccc(Cl)cc1	-49.3
Cc1c(C(=O)NCCCNCCCN)nn(-c2ccc(Cl)cc2Cl)c1-c1ccc(Cl)cc1	-34.8
Cc1c(C(=O)NCCCCCCCCCCCNCCCCCCCCCCCN)nn(-c2ccc(Cl)cc2Cl)c1-c1ccc(Cl)cc1	-29.2
Cc1c(C(=O)NCCCCCNCCCCCN)nn(-c2ccc(Cl)cc2Cl)c1-c1ccc(Cl)cc1	-40.7
Cc1c(C(=O)NCCCCCCCCCN(C)CCCCCCCCCN)nn(-c2ccc(Cl)cc2Cl)c1-c1ccc(Cl)cc1	-67.9
Cc1c(C(=O)NCCNCCN)nn(-c2ccc(Cl)cc2Cl)c1-c1ccc(Cl)cc1	-22.9
Cc1c(C(=O)NCCCCCCCNCCCCCCCN)nn(-c2ccc(Cl)cc2Cl)c1-c1ccc(Cl)cc1	-52.8
Cc1c(C(=O)NCCCCCN(C)CCCCCN)nn(-c2ccc(Cl)cc2Cl)c1-c1ccc(Cl)cc1	-53.3
Cc1c(C(=O)NCCCCCCCCCNCCCCCCCCCN)nn(-c2ccc(Cl)cc2Cl)c1-c1ccc(Cl)cc1	-65.2
Cc1c(C(=O)NCCCCCCCN(C)CCCCCCCN)nn(-c2ccc(Cl)cc2Cl)c1-c1ccc(Cl)cc1	-62
